Entries after “also recorded” stand apart in the source; their conditions may differ. Where two headings read alike, the source gives them in different places.
What was measured:
[1] = tested on: patients with acute decompensation of cirrhosis and suspected ACLF; assay: Three-arm, randomized, controlled TMZ study in suspected ACLF: mortality; assay type: in vivo, human; settings: for Treatment effect on Day 90 mortality: dihydrochloride
From the text: A three-arm, randomized, controlled study enrolled 133 subjects presenting with acute decompensation of cirrhosis and suspected ACLF.
Patient were divided into two groups by Child Pugh score: Class A or B (<10) and Class C (≥10).
[…] 1. The ACLF3 group was not analyzed because of the small numbers.

[2] = TMZ study in suspected ACLF: white blood cell count, platelet count, creatinine clearance; assay type: in vivo, human; settings: throughout the study, TMZ versus control groups; dihydrochloride
From the text: A three-arm, randomized, controlled study enrolled 133 subjects presenting with acute decompensation of cirrhosis and suspected ACLF. Included patients presented with a prothrombin time extended by 4-6 seconds or an international normalized ratio of ≥1.5 or any degree of hepatic encephalopathy as assessed by the West Haven criteria.
In view of the overall disturbed immunlological state and the coagulopathy that is common in ACLF, it is important to asertain whether trimetazidine poses an additional risk to ACLF patients in this regard.

[3] = cited from earlier work
liver lipid homeostasis = settings: human normal obese subjects; cited from earlier work
[4] = tested on: non-alcoholic steatohepatitis; settings: human population; cited from earlier work
[5] = tested on: carbon tetrachloride-induced fulminant liver failure; settings: animal model; cited from earlier work
[6] = Day 30, CP < 10, TMZ arm = TMZ + LOLA + SoC, LOLA arm = LOLA + SoC

## COc1ccc(CN2CCNCC2)c(OC)c1OC.Cl.Cl [TMZ, 1-(2,3,4-trimethoxybenzyl)piperazine dihydrochloride]
[1]; ACLF1 population
  Treatment effect on Day 90 mortality: drug effect was visible; also recorded: Positive results
[1]; ACLF2 population
  Treatment effect on Day 90 mortality: drug effect was visible; also recorded: Positive results
[1]; ACLF population by EASL-CLIF criteria, worst case imputation
  Treatment effect on Day 90 mortality: highly statistically significant difference; also recorded: robust effect
[1]; AD population by EASL-CLIF criteria, worst case imputation
  Treatment effect on Day 90 mortality: not even a trend towards an effect; also recorded: ineffective
[1]; Child Pugh Class C (≥10) subjects
  30- and 90-day mortality: substantial and statistically significant reductions
[1]; [6]
  Alive (number of patients): 9
  Dead (number of patients): 2
  Dead (percent of patients): 18%
[1]; Day 30, CP ≥ 10
  Alive (number of patients): 20
  Dead (number of patients): 5
  Dead (percent of patients): 20%
[1]; Day 90, CP < 10
  Alive (number of patients): 7
  Dead (number of patients): 4
  Dead (percent of patients): 36%
[1]; Day 90, CP ≥ 10
  Alive (number of patients): 16
  Dead (number of patients): 9
  Dead (percent of patients): 36%
[2]
  Estimated creatinine clearance rate: does not Affect; also recorded: no difference between the TMZ and control groups
  Platelet count / thrombocytopenia: does not Affect; also recorded: not causing thrombocytopenia; also recorded: no difference between the TMZ and control groups
  White blood cell levels: does not Affect; also recorded: no meaningful difference between the TMZ and control groups
[3]; dihydrochloride
  Solubility in water / aqueous solution: highly soluble in water
[3]; listed as dihydrochloride form of TMZ, dihydrochloride
  Solubility in water / aqueous solution: very soluble
Liver lipid homeostasis
  Effect on liver lipid homeostasis: improve liver lipid homeostasis
[4]
  Effect on parameters associated with non-alcoholic steatohepatitis: improve certain parameters associated with non-alcoholic steatohepatitis
[5]
  Effectiveness in fulminant liver failure: effectiveness

## COc1ccc(CN2CCNCC2)c(OC)c1OC [neutral form of TMZ, 1-(2,3,4-trimethoxybenzyl)piperazine]
[3]
  Solubility in organic environments: soluble in certain organic environments
  Solubility in water / aqueous solution: only sparingly soluble in aqueous solution

## L-ornithine-L-aspartate [LOLA]
[1]; [6]
  Alive (number of patients): 10
[1]; Day 30, CP ≥ 10
  Alive (number of patients): 16
[1]; Day 90, CP < 10
  Alive (number of patients): 6
[1]; Day 90, CP ≥ 10
  Alive (number of patients): 6

Reference: US20200261443A1, “Use of Anti-Ischemic Compounds in Treating Acute-On-Chronic Liver Failure” (Martin Pharmaceuticals Inc., priority 2019, published 2020)
